Patent US11827628B2, “Compositions and methods for inhibition of the JAK pathway” (Rigel Pharmaceuticals, Inc., priority 2005, dated 2023)
Structures can show the parent of a compound that is named as a salt.

The molecules below were run on up-regulation of ICAM-1 (CD54) by IFNγ in A549 lung epithelial cells (assay: A549 Epithelial Line Stimulated with IFNγ (ICAM-1 surface expression, FACS)). Conditions: Homo sapiens, A549, A549 cells stimulated with IFNγ, ICAM-1 expression by FACS; read-out: IC50, Example 43.
Assay type: cell-based, human
Excerpt: The activity of the compounds of the invention may additionally be characterized by assaying the effect of the 2,4-substituted pyrimidinediamine compounds described herein on A549 lung epithelial cells and U937 cells. A549 lung epithelial cells and U937 cells up-regulate ICAM-1 (CD54) surface expression in response to a variety of different stimuli. Therefore, using ICAM-1 expression as readout, test compound effects on different signaling pathways can be assessed in the same cell type. Stimulation with IL-1β through the IL-1β receptor activates the TRAF6/NFκB pathway resulting in up-regulation of ICAM-1. IFNγ induces ICAM-1 up-regulation through activation of the JAK1/JAK2 pathway. The up-regulation of ICAM-1 can be quantified by flow cytometry across a compound dose curve and EC50, values are calculated. An exemplary assays of this type are described in greater detail in Examples 43 and 44
A549 lung epithelial cells up-regulate ICAM-1 (CD54) surface expression in response to a variety of different stimuli. Therefore, using ICAM-1 expression as readout, compound effects on different signaling pathways can be assessed in the same cell type. IFNγ up-regulates ICAM-1 through activation of the JAK/Stat pathway. In this example, the up-regulation of ICAM-1 by IFNγ was assessed.
The A549 lung epithelial carcinoma cell line originated from the American Type Culture Collection. Routine culturing was with F12K media (Mediatech Inc., Lenexa, KS, Cat. No. 10-025-CV) with 10% fetal bovine serum, 100 I.U. penicillin and […] streptomycin (complete F12k media). Cells were incubated in a humidified atmosphere of 5% CO2 at 37° C. Prior to use in the assay, A549 cells were washed with PBS and trypsinized (Mediatech Inc., Cat. No. 25-052-CI) to lift the cells. The trypsin cell suspension was neutralized with complete F12K media and centrifuged to pellet the cells. The cell pellet was resuspended in complete F12K media at a concentration of 2.0×10^5/mL. Cells were seeded at 20,000 per well, 100 μL total volume, in a flat bottom tissue culture plate and allowed to adhere overnight.
On day two, A549 cells were pre-incubated with a 2,4-substituted pyrimidinediamine test compound or DMSO (control) (Sigma-Aldrich, St. Louis, MO, Catalog No. D2650) for 1 hour. The cells were then stimulated with IFNγ (75 ng/mL) (Peprotech Inc., Rocky Hill, NJ, Cat. No. 300-02) and allowed to incubate for 24 hours. The final test compound dose range was 30 μM to 14 nM in 200 μL F12K media containing 5% FBS, 0.3% DMSO.
On day three, the cell media was removed and the cells were washed with 200 μL PBS (phosphate buffered saline). Each well was trypsinized to dissociate the cells, then neutralized by addition of 200 μL complete F12K media. Cells were pelleted and stained with an APC conjugated mouse anti-human ICAM-1 (CD54) (BD Pharmingen, San Diego, CA, Catalog #559771) antibody for 20 minutes at 4° C. Cells were washed with ice cold FACS buffer (PBS+2% FBS) and surface ICAM-1 expression was analyzed by flow cytometry. Detection was performed using a BD LSR I System Flow Cytometer, purchased from BD Biosciences of San Jose, California Events were gated for live scatter and the geometric mean was calculated (Becton-Dickinson CellQuest software version 3.3, Franklin Lakes, NJ). Geometric means were plotted against the compound concentration to generate a dose response curve.

| Structure (SMILES) | IC50 |
| --- | --- |
| NS(=O)(=O)c1cccc(Nc2ncc(F)c(Nc3ccc(-c4cnco4)cc3)n2)c1 [IV-5, N2-(3-Aminosulfonylphenyl)-5-fluoro-N4-[4-(1,3-oxazol-5-yl)phenyl]-2,4-pyrimidinediamine] | 16.1 µM |
| COc1ccc(Nc2nc(Nc3cccc(S(N)(=O)=O)c3)ncc2Br)cc1Cl [VI-26, N2-(3-aminosulfonylphenyl)-5-bromo-N4-(3-chloro-4-methoxyphenyl)-2,4-pyrimidinediamine] | 1.7 µM |
| COc1cc(Nc2nc(Nc3ccc(Cl)c(S(N)(=O)=O)c3)ncc2F)ccc1Cl [VI-11, N2-(3-Aminosulfonyl-4-chlorophenyl)-N4-(4-chloro-3-methoxyphenyl)-5-fluoro-2,4-pyrimidinediamine] | 47.1 µM |
| C#CCOc1ccc(Nc2nc(Nc3ccc(C)c(S(N)(=O)=O)c3)ncc2F)cc1Cl [VI-59, N2-(3-Aminosulfonyl-4-methylphenyl)-N4-[3-chloro-4-(prop-2-ynyloxy)phenyl]-5-fluoro-2,4-pyrimidinediamine] | 4.98 µM |
| NS(=O)(=O)c1cccc(Nc2ncc(F)c(Nc3ccc(CCCCO)cc3)n2)c1 [VI-89, N2-(3-Aminosulfonylphenyl)-5-fluoro-N4-[4-(4-hydroxybutyl)phenyl]-2,4-pyrimidinediamine] | 5.76 µM |
| NS(=O)(=O)c1cccc(Nc2ncc(F)c(Nc3ccc(CCCF)cc3)n2)c1 [VI-83, N2-(3-Aminosulfonylphenyl)-5-fluoro-N4-[4-(3-fluoropropyl)phenyl]-2,4-pyrimidinediamine] | 7.3 µM |
| COc1c(C)cc(Nc2ncc(F)c(Nc3ccc(C(C)(C)C)cc3)n2)cc1S(N)(=O)=O [VI-37, N2-(3-Aminosulfonyl-4-methoxy-5-methylphenyl)-N4-(4-tert-butylphenyl)-5-fluoro-2,4-pyrimidinediamine] | 12.4 µM |
| NS(=O)(=O)c1cccc(Nc2ncc(F)c(Nc3ccc(CCCCF)cc3)n2)c1 [VI-92, N2-(3-Aminosulfonylphenyl)-5-fluoro-N4-[4-(4-fluorobutyl)phenyl]-2,4-pyrimidinediamine] | 13 µM |
| NS(=O)(=O)c1cccc(Nc2ncc(F)c(Nc3ccc(CCCO)cc3)n2)c1 [VI-86, N2-(3-Aminosulfonylphenyl)-5-fluoro-N4-[4-(3-hydroxypropyl)phenyl]-2,4-pyrimidinediamine] | 4.44 µM |
| N#CCN1C(=O)COc2ccc(Nc3nc(Nc4cccc(S(N)(=O)=O)c4)ncc3F)cc21 [Compound V-7, N2-(3-Aminosulphonylphenyl)-5-fluoro-N4-(3-oxo-4-cyanomethyl-benz[1,4]oxazin-6-yl]-2,4-pyrimidinediamine] | 5 µM |
| C#CCn1ccc2cc(Nc3nc(Nc4ccc(C)c(S(N)(=O)=O)c4)ncc3F)ccc21 [IX-1, N2-(3-Aminosulfonyl-4-methylphenyl)-5-fluoro-N4-[1-(propyn-3-yl)indol-5-yl]-2,4-pyrimidinediamine] | 4.88 µM |

Now from value to molecule:

| IC50 | Structure (SMILES) |
| --- | --- |
| 10.7 µM | Cc1ccc(Nc2ncc(F)c(Nc3ccc4sccc4c3)n2)cc1S(N)(=O)=O [VII-57, N2-(3-Aminosulfonyl-4-methylphenyl)-N4-(benzothiophen-5-yl)-5-fluoro-2,4-pyrimidinediamine] |
| 28.1 µM | NS(=O)(=O)c1cccc(Nc2ncc(F)c(Nc3ccc(Cc4ccncc4)cc3)n2)c1 [III-128, N2-(3-Aminosulfonylphenyl)-5-fluoro-N4-[4-(4-pyridylmethyl)phenyl]-2,4-pyrimidinediamine p-Toluenesulfonic Acid Salt] |
| 3.06 µM | CN1C(=O)CSc2ccc(Nc3nc(Nc4cccc(S(N)(=O)=O)c4)ncc3F)cc21 [VII-49, N2-(3-Aminosulfonylphenyl)-5-fluoro-N4-(4-methyl-3-oxo-benz[1,4]thiazin-6-yl)-2,4-pyrimidinediamine] |
| 7.5 µM | Cc1ccc(Nc2ncc(F)c(Nc3ccc4ncccc4c3)n2)cc1S(N)(=O)=O [VII-69, N2-(3-Aminosulfonyl-4-methylphenyl)-5-fluoro-N4-(quinolin-6-yl)-2,4-pyrimidinediamine] |
| 23.4 µM | COc1ccc(Nc2nc(Nc3cccc(S(N)(=O)=O)c3)ncc2F)cn1 [VII-6, N2-(3-Aminosulfonylphenyl)-5-fluoro-N4-(2-methoxypyrid-5-yl)-2,4-pyrimidinediamine] |
